We go through 5 compounds from patent US12241890B2, “Methods for generating barcoded nucleic acid molecules using fixed cells” (10X Genomics, Inc., priority 2019, dated 2025).

In one test the test system is PFA-fixed Jurkats. Briefly: Bulk un-fixing of PFA-fixed Jurkats with proline analog un-fixing agents and cold-active protease, RNA yield (Example 10). It counts as cell-based. The note with it: 4% PFA-fixed Jurkats; 100 mM un-fixing agent, 10 U/mL ArcticZymes Proteinase where present; 14-25° C. 90 min then 80° C. 15 min. As to the method: B. Un-fixing agent stock solutions: the proline analog un-fixing agents of compounds (12), (13), (14), and (15) were each formulated in 50 mmol Tris buffer, pH 8.3 to a target concentration of 300 mM and the pH was adjusted to pH 8.3 using 2M NaOH. The final formulation was filtered through a 0.2 μm nylon syringe filter before addition into final composition of 100 mM of the un-fixing agent compound, 10 U/mL ArcticZymes Proteinase and 0.2 U/mL RNAse inhibitor in 50 mM Tris, pH 8.3.
C. Protease stock solution: A stock solution of 10 U/mL of the cold-active protease, ArcticZymes Proteinase (ArcticZymes Technologies ASA, Tromso, Norway) was stored at −20° C.
D. Bulk un-fixing/protease treatment of fixed cells: Jurkats were fixed with 4% PFA for 24 h at 4° C. and quenched with 10% Fetal Bovine Serum (“FBS”) in PBS. RNAse inhibitor was added to the fixed cell solution together with 10 U/mL of the cold-active protease, ArcticZymes Proteinase, 1 mM of the protease inhibitor, and 100 mM of one of each of the tested un-fixing agents: compound (8), (12), (13), (14), or (15). […]
E. Bulk RNA isolation: After the bulk un-fixing treatment of the PFA-fixed Jurkats, the resulting samples were centrifuged 5 minutes at 500 g, 4° C., and the supernatant and pellet fractions were collected separately. […] Isolated RNA was quantified using Qubit™ RNA HS Assay Kit (Invitrogen, Cat #Q32855).

The next test has as its system PFA-fixed PBMCs. Briefly: Bulk un-fixing of PFA-fixed PBMCs, bulk RNA isolation and bulk RNA sequencing (Example 1). The note with it: 4% PFA-fixed PBMCs, 50 mM un-fixing agent, 0.2% SDS, 10 mU/mL Proteinase K, 40° C. 2 h; for complexity of the transcriptomic library relative to no treatment of the fixed PBMCs (FIG. 8): estimated with Preseq. It counts as cell-based. As to the method: Un-fixing agent solutions: the un-fixing agent of compounds (1), (4), (8), and (11) were each formulated in 30 mmol Tris buffer, pH 6.8 to a target concentration of 80 mM and the pH was adjusted to pH 6.5 using 2M NaOH. The final formulation was filtered through a 0.2 μm nylon syringe filter before addition into final composition of 50 mM of the un-fixing agent compound, 0.2% SDS, 10 mU/mL of Proteinase K and 0.2 U/mL RNAse inhibitor in 30 mM Tris, pH 6.8.
Bulk Un-fixing: PBMCs were fixed with 4% PFA for 24 h at 4° C. and quenched with 10% Fetal Bovine Serum (“FBS”) in PBS. The PFA-fixed PBMCs were treated with an un-fixing agent solution of compounds (1), (4), (8), or (11) formulated as described above at 40° C. for 2 h. Three different control samples also were prepared without un-fixing agent added: (1) fresh PBMCs (“Fresh Pellet” control); (2) PBMCs fixed with 4% PFA for 24 h then treated with 0.2% SDS, 10 mU/mL Proteinase K, and 0.2 U/mL RNAse inhibitor in 30 mM Tris, pH 6.8 at 40° C. for 2 h (“Fixed+PK, No UF agt.” control); and (3) PBMCs fixed with 4% PFA for 24 h (“fixed no un-fixing agent” control).
Bulk RNA isolation: After the bulk un-fixing treatment of the PFA-fixed PBMCs, the resulting treated (and control) samples were centrifuged at 450 g for 5 min and pellet as well as supernatant were collected. RNA isolation from collected pellets and supernatants was performed using RNeasy Plus Mini Kit (Qiagen, Cat #_74134) and RNeasy MinElute Cleanup Kit (Qiagen, Cat #74204), respectively. Isolated RNA was quantified using Qubit™ RNA HS Assay Kit (Invitrogen, Cat #Q32855) and Agilent RNA ScreenTape System (Agilent Technologies).
Bulk RNA sequencing: RNA could not be isolated from the “fixed no un-fixing agent” control sample. […] The “Fresh Pellet” control data was obtained by sequencing following bulk RNA isolation using the Qiagen kit without performing the 10× Genomics Single Cell 3′V3 protocol described below. For the four un-fixing agent treated samples and the remaining control samples described above, cDNA amplification was performed using an equivalent of 10 ng RNA. Post cDNA amplification, library prep was performed according to the 10× Genomics Single Cell 3′V3 protocol (10× Genomics, Pleasanton, CA, USA). A 3000-cell load of fresh PBMCs was used as a single cell reference (“Fresh SC3P”) and library prep was performed using Single Cell 3′V3 protocol (10× Genomics, Pleasanton, CA, USA). The final libraries were sequenced to between 25 and 100 million reads on a NovaSeq 6000 sequencer (Illumina Inc., San Diego, CA, USA). Bulk library complexity was estimated using the software package Preseq, as described by Daley and Smith (see e.g., Daley and Smith, “Predicting the molecular complexity of sequencing libraries,” Nature Methods 10:325-327, 2013). Library complexity as used here refers to the estimated number of unique RNA molecules aligned properly to the transcriptome (i.e., reads considered to be informative and used for gene expression counting) as a function of all sequenced reads. Gene expression counts were down-sampled across libraries to match the lowest sequencing depth and pairwise gene expression correlations were computed as the Pearson correlation (R^2) of gene expression counts between samples. When comparing gene expression data from control, unfixed PBMCs, gene expression counts were summed across cells to produce pseudo-bulk gene expression counts, as is customary in commercial gene expression analysis software (e.g., 10× Genomics, Pleasanton, CA, USA).

Test [1] concerns RNA treated with formaldehyde. The note with it: Karmakar et al., Nature Chemistry 7: 752-758 (2015); cited from earlier work.

Entries after “also recorded” stand apart in the source; their conditions may differ.

On to `Nc1ccncc1P(=O)(O)O` [Compound (8), (4-aminopyridin-3-yl)phosphonic acid], for which, in the test with PFA-fixed Jurkats, the “Pellet Avg. RNA yield” value amounted to 54 ng and the “Supernatant Avg. RNA yield” value was found to be 200 ng. For the same compound, in the test on PFA-fixed PBMCs, the “transcriptomic mapping relative to fixed PBMC samples not treated with an un-fixing agent (FIG. 7)” value was “decreased the transcriptomic mapping” and the “complexity of the transcriptomic library relative to no treatment of the fixed PBMCs (FIG. 8)” value was “higher complexity of the transcriptomic library; also recorded: highest library complexity”.
As to `Cc1ccc(N)c(S(=O)(=O)O)c1` [(4), 2-amino-5-methylbenzenesulfonic acid], in the test with PFA-fixed PBMCs, the “RNA recovery per read sequenced relative to fixed PBMCs treated only with proteinase K and SDS” value is “increased RNA recovery per read sequenced”; the “transcriptomic mapping relative to fixed PBMC samples not treated with an un-fixing agent (FIG. 7)” value is recorded as “increased the transcriptomic mapping”; the “complexity of the transcriptomic library relative to no treatment of the fixed PBMCs (FIG. 8)” value is “higher complexity of the transcriptomic library”.
On to `Cc1ccc(N)c(C(=O)O)c1` [Compound (1), 2-amino-5-methylbenzoic acid], for which, in the test on PFA-fixed PBMCs, the “RNA recovery per read sequenced relative to fixed PBMCs treated only with proteinase K and SDS” value is “increased RNA recovery per read sequenced”; the “recovery of RNA from the fixed biological sample” value is listed as “highest recovery of RNA”; the “transcriptomic mapping relative to fixed PBMC samples not treated with an un-fixing agent (FIG. 7)” value is “increased the transcriptomic mapping”; the “complexity of the transcriptomic library relative to no treatment of the fixed PBMCs (FIG. 8)” value is recorded as “higher complexity of the transcriptomic library”.
As to `Cc1ccc(N)c(P(=O)(O)O)c1` [(3), (2-amino-5-methylphenyl)phosphonic acid], the “breakdown of aminal and hemi-aminal adducts in RNA treated with formaldehyde” value in test [1] was “catalytically break down the aminal and hemi-aminal adducts”.
Regarding “(2-amino-5-{[2-(2-poly-ethoxy)ethyl]carbamoyl} phenyl)phosphonic acid [(11)]”, the “transcriptomic mapping relative to fixed PBMC samples not treated with an un-fixing agent (FIG. 7)” value in the test with PFA-fixed PBMCs was “decreased the transcriptomic mapping”.
